# Measured values reported in patent US7288573B2, “Method of repelling insects” (priority 2001, dated 2007).
# “And” between values parts separate entries of the source, which are not always exact repeats. Equal entries are not always repeated. “Also recorded” adds a separate entry of the source.
# What was measured:
# Culex spp. = experiment: Mosquito repellency of 2-undecanone, treated arm in cage (Example 5); assay type: in vivo; settings: for No. landings: single replicates; for observed mosquito behavior / repellent effect (words): observed at 0, 3 and 6 hours
# Source text: Two mosquitoes cages were constructed using wood framing and fine mesh wire screen. The dimensions of each cage were 59 cm high×55 cm wide×59 cm deep. A hinged access door was installed at the front of each chamber for insertion of the water-filled containers filled with mosquito pupae. Also present at the front of each chamber was a 9 cm diameter plastic tube (i.d.) for insertion of the arm of the investigator. The arm insertion tube was sealed with a rubber stopper when not in use.
# Mosquitoes (Culex spp.) were obtained (as pupae) from Carolina Biological Supply Co., Burlington, N.C., USA. Following their arrival, the mosquitoes were divided into approximately equal numbers in two water-filled containers and placed in the two cages described above. Some of the mosquitoes had hatched upon arrival.
# Testing was done with 2-undecanone for repellent activity by treating one arm of the investigator with approximately 1 ml of the test solution. Following several minutes for solvent evaporation, the treated arm was inserted through the insertion tube for 5 minutes. The other arm was treated with ethanol (control) or a different concentration of 2-undecanone, and inserted into the insertion tube of the adjacent chamber. Next, the behavior of the mosquitoes in response to the presence of the investigator's arms was noted. Mosquito behavior was recorded as 1) landing or attempting to land on the investigator's arm, versus 2) dispersal away from the treated arm towards the opposite ends of the cage. The approximate number of mosquitoes present at the beginning of the observations was noted. The observations were repeated (without re-treatment of the investigator's hand and arm) after 3 hours and again after 6 hours. Treatments were alternated between the different cages. Each observation was repeated 3 times. Tests were done with 20%, 5%, 2%, 0.5% 2-undecanone, 20% DEET, and the ethanol control.
# With one exception, none of the mosquitoes succeeded in biting, although mosquitoes that landed on the investigator's arm were dislodged by flicking the arm or hand. In most cases, any physical movement of the hand or arm will induce the mosquito to leave. Thus, few if any bites were expected. Landings on the arm were considered as evidence of attraction, with intent to bite.
# Aedes aegypti = experiment: Mosquito repellency of 2-undecanone versus DEET and Citronella in mineral oil (Example 9); assay type: in vivo; settings: for Percent Efficacy Post-Treatment / NP, Mean / Percent (percent of mosquitoes responding, landings on the treated hand/arm) / NP / number of bites recorded / observed repellent activity (words): 20% in mineral oil; for NP: single replicates; for observed repellent activity (words): observed 0 to 12 hours
# Source text: Cages. Two mosquitoes cages were used for this experiment. The cages were constructed using wood framing and fine mesh wire screen. The dimensions of each cage were 59 cm high×55 cm wide by 59 cm deep. A hinged access door was installed at the front of each chamber for insertion of the water-filled containers filled with mosquito larvae. Also present at the front of each chamber was a 9 cm (I.D.) diameter plastic tube for insertion of the arm of the investigator. The arm insertion tube was sealed with a rubber stopper when not in use.
# Mosquitoes and Mosquito Rearing. Mosquitoes (Aedes aegypti) were obtained as eggs from Dr. Gary Benzon (Benzon Research, Inc., Carlisle, Pa. 17013, USA) and allowed to hatch at three successive intervals so as to provide a continuing long-term supply of fresh insects. Following their arrival, the egg rafts were divided into approximately equal numbers in multiple water-filled containers within the test chambers, which also served as emergence cages. Following hatching, the larval cultures were fed with insect rearing compound supplied by United States Department of Agriculture, Gainesville, Fla., USA, courtesy of a person The water in the breeding chambers was changed regularly at two or three day intervals by filtration to minimize contamination and prevent overcrowding. Mosquitoes were bred throughout the 3-week study period in order to maintain a continuing supply of fresh insects (see below) and build up the population, usually exceeding 100 insects per cage.
# Test Compounds and Testing Schedule. Testing was done with the mineral oil formulation of 2-undecanone for repellent activity by treating one arm of the investigator with approximately 1 ml of the test formulation. To avoid excessive bites and development of severe allergic reactions from multiple mosquito bites, treatments were applied to removable strips of cotton cloth taped to all parts of the investigator's hand and arm. Treatments were applied in a separate room, far from the mosquito cages. Following several minutes for the oil to soak in place, the cloth strips saturated with the treatment solution was attached to the investigator's wrist. Then, the treated arm was inserted through the insertion tube for 5 minutes. The other arm was treated with mineral oil (control) or a different compound and inserted into the insertion tube of the adjacent chamber. Next, the behavior of the mosquitoes in response to the presence of the investigator's arms was noted. Mosquito behavior was recorded as 1) landing or attempting to land on the investigator's hand or arm; 2) biting and sucking blood; or 3) dispersal away from the treated hand and arm towards the opposite ends of the cage. The approximate number of mosquitoes present in the cage at the beginning of each observation was noted. Treatments were alternated between the different cages. Each observation was repeated 3 times.
# 2-undecanone, DEET and Citronella arrived as liquids mixed in mineral oil in sealed plastic vials. To prepare the compounds for testing, the stocks were shaken vigorously to thoroughly mix the compounds in the mineral oil carrier, the vials opened and 1 ml samples applied directly as described above.
# Observations. Mosquitoes were recorded as 1) repelled if they dispersed away from the treated hand/arm, changed course while in flight after approaching the treated hand/arm, touched the treated hand/arm and quickly withdrew; versus 2) not repelled if they landed on the treated hand/arm and remained on the cloth or skin of the investigator, or bit the investigator and sucked blood. The number of bites during the exposure period also was recorded.
# […] Efficacy was calculated according to the formula: Efficacy=[(no.landings/no.present in control)−(no.landings/no. present in experimental) divided by (no.landings/no.present in control)]×100.
# [1] = 0.5% on arm, 6 hours after treatment
# [2] = 2% on arm, 6 hours after treatment
# [3] = 5% on arm, 0 hours after treatment
# [4] = 5% on arm, 3 hours after treatment
# [5] = 5% on arm, 6 hours after treatment
# [6] = 20% on arm, 0 hours after treatment
# [7] = 20% on arm, 3 hours after treatment
# [8] = 20% on arm, 6 hours after treatment
structure (smiles),measurement,setting,value
CCCCCCCCCC(C)=O [2-undecanone],"No. landings, Mean","Culex spp.; 0.5% on arm, 0 hours after treatment",0.7
same,"No. landings, Mean","Culex spp.; 0.5% on arm, 3 hours after treatment",0.7
same,"No. landings, Mean",Culex spp.; [1],0.3
same,No. landings,Culex spp.; [1],0 (2×) and 1
same,observed mosquito behavior / repellent effect (words),Culex spp.; 0.5% on arm,no differences between the treated arm and the ethanol controls were observed
same,observed mosquito behavior / repellent effect (words),"Culex spp.; 0.5% on arm, listed as Undecanone","throughout the cage. No obvious avoidance, no dispersal away from"
same,"No. landings, Mean","Culex spp.; 2% on arm, 0 hours after treatment",0.7
same,"No. landings, Mean","Culex spp.; 2% on arm, 3 hours after treatment",1.0
same,"No. landings, Mean",Culex spp.; [2],0.7
same,No. landings,Culex spp.; [2],1 (2×) and 0
same,observed mosquito behavior / repellent effect (words),Culex spp.; 2% on arm,"at three hours after treatment, there was no effect"
same,"No. landings, Mean",Culex spp.; [3],0
same,No. landings,Culex spp.; [3],0
same,"No. landings, Mean",Culex spp.; [4],0
same,No. landings,Culex spp.; [4],0
same,"No. landings, Mean",Culex spp.; [5],1.0
same,No. landings,Culex spp.; [5],1
same,observed mosquito behavior / repellent effect (words),Culex spp.; 5% on arm,immediate and obvious repellent behavior; also recorded: The effect was absent after 6 hours
same,observed mosquito behavior / repellent effect (words),"Culex spp.; 5% on arm, listed as Undecanone",Comments: The formulation was highly repellent. Mosquitoes
same,"No. landings, Mean",Culex spp.; [6],0
same,No. landings,Culex spp.; [6],0
same,"No. landings, Mean",Culex spp.; [7],0
same,No. landings,Culex spp.; [7],0
same,"No. landings, Mean",Culex spp.; [8],0
same,No. landings,Culex spp.; [8],0
same,observed mosquito behavior / repellent effect (words),Culex spp.; 20% on arm,the effect was lost after 6 hours
same,concentrations with the strongest repellent effect,"Culex spp.; tested at 20%, 5%, 2%, 0.5%",strongest effect at the 5% and 20% concentrations
same,residual activity,Aedes aegypti; 1% concentration,none after 3 hours
same,duration of residual activity,Aedes aegypti; 5% level,up to 12 hours
same,duration of residual efficacy,Aedes aegypti; 20% concentration in mineral oil,up to 12 hours
same,Percent Efficacy Post-Treatment,Aedes aegypti; 0 hours,96.5%
same,"NP, Mean",Aedes aegypti; 0 hours after treatment,2.3
same,"Percent (percent of mosquitoes responding, landings on the treated hand/arm)",Aedes aegypti; 0 hours after treatment,2.0%
same,NP,Aedes aegypti; 0 hours after treatment,2 (3×) and 0 and 3 and 5
same,Percent Efficacy Post-Treatment,Aedes aegypti; 3 hours,90.1%
same,"NP, Mean",Aedes aegypti; 3 hours after treatment,3.7
same,"Percent (percent of mosquitoes responding, landings on the treated hand/arm)",Aedes aegypti; 3 hours after treatment,5.0%
same,NP,Aedes aegypti; 3 hours after treatment,1 and 6 and 4
same,Percent Efficacy Post-Treatment,Aedes aegypti; 6 hours,78.5%
same,"NP, Mean",Aedes aegypti; 6 hours after treatment,24.7
same,"Percent (percent of mosquitoes responding, landings on the treated hand/arm)",Aedes aegypti; 6 hours after treatment,14.7%
same,NP,Aedes aegypti; 6 hours after treatment,24 and 21 and 29
same,Percent Efficacy Post-Treatment,Aedes aegypti; 9 hours,81.5%
same,"NP, Mean",Aedes aegypti; 9 hours after treatment,4.7
same,"Percent (percent of mosquitoes responding, landings on the treated hand/arm)",Aedes aegypti; 9 hours after treatment,11.8%
same,NP,Aedes aegypti; 9 hours after treatment,6 and 1 and 7
same,Percent Efficacy Post-Treatment,Aedes aegypti; 12 hours,78.4%
same,number of bites recorded,Aedes aegypti; 12 hours,4
same,"NP, Mean",Aedes aegypti; 12 hours after treatment,7.7
same,"Percent (percent of mosquitoes responding, landings on the treated hand/arm)",Aedes aegypti; 12 hours after treatment,12.2%
same,NP,Aedes aegypti; 12 hours after treatment,4 and 8 and 11
same,observed repellent activity (words),Aedes aegypti,exceeding the efficacy of DEET (20%) and Citronella; also recorded: strong repellent activity
same,observed repellent activity (words),Aedes aegypti; listed as 2-Undecanone,"Comments: The 2-undecanone formulation was highly repellent. At zero hours, all; also recorded: No bites were observed until 12 hours"
same,number of bites recorded,Aedes aegypti; zero hours,None attempted to feed
"CCN(CC)C(=O)c1cccc(C)c1 [DEET, N,N-diethyl-meta-toluamide, reference compound]","No. landings, Mean",Culex spp.; [6],0
same,No. landings,Culex spp.; [6],0
same,"No. landings, Mean",Culex spp.; [7],0
same,No. landings,Culex spp.; [7],0
same,"No. landings, Mean",Culex spp.; [8],0.3
same,No. landings,Culex spp.; [8],1 and 0 (2×)
same,observed mosquito behavior / repellent effect (words),Culex spp.; 20% on arm,"The effect persisted after 3 hours, but was largely lost after 6 hours"
same,Percent Efficacy Post-Treatment,Aedes aegypti; 0 hours,96.0%
same,"NP, Mean",Aedes aegypti; 0 hours after treatment,2.0
same,"Percent (percent of mosquitoes responding, landings on the treated hand/arm)",Aedes aegypti; 0 hours after treatment,2.3%
same,NP,Aedes aegypti; 0 hours after treatment,3 (2×) and 1 (2×)
same,Percent Efficacy Post-Treatment,Aedes aegypti; 3 hours,73.9%
same,"NP, Mean",Aedes aegypti; 3 hours after treatment,18.7
same,"Percent (percent of mosquitoes responding, landings on the treated hand/arm)",Aedes aegypti; 3 hours after treatment,13.1%
same,NP,Aedes aegypti; 3 hours after treatment,22 and 11 and 23
same,Percent Efficacy Post-Treatment,Aedes aegypti; 6 hours,75.9%
same,"NP, Mean",Aedes aegypti; 6 hours after treatment,21.7
same,"Percent (percent of mosquitoes responding, landings on the treated hand/arm)",Aedes aegypti; 6 hours after treatment,16.5%
same,NP,Aedes aegypti; 6 hours after treatment,31 and 21 and 13
same,Percent Efficacy Post-Treatment,Aedes aegypti; 9 hours,85.3%
same,number of bites recorded,Aedes aegypti; 9 hours (later intervals),2
same,"NP, Mean",Aedes aegypti; 9 hours after treatment,7.3
same,"Percent (percent of mosquitoes responding, landings on the treated hand/arm)",Aedes aegypti; 9 hours after treatment,9.4%
same,NP,Aedes aegypti; 9 hours after treatment,11 and 7 and 4
same,Percent Efficacy Post-Treatment,Aedes aegypti; 12 hours,71.3%
same,number of bites recorded,Aedes aegypti; 12 hours,22
same,"NP, Mean",Aedes aegypti; 12 hours after treatment,28.7
same,"Percent (percent of mosquitoes responding, landings on the treated hand/arm)",Aedes aegypti; 12 hours after treatment,16.2%
same,NP,Aedes aegypti; 12 hours after treatment,16 and 37 and 33
same,observed repellent activity (words),Aedes aegypti,"strong repellent activity, similar to that observed for 2-undecanone"
same,number of bites recorded,Aedes aegypti; zero hours,one
